Values quoted from earlier work as cited in US12637520B2, “Conjugation chemistry for catalytic antibody 38C2” (UNIVERSITY OF FLORIDA RESEARCH FOUNDATION, INCORPORATED, priority 2019, dated 2026).

Target: open conformation of integrin α4β1 (Homo sapiens, UniProt P05556+P13612)
Settings: cited from earlier work

Sequence of open conformation of integrin α4β1 (P13612 34-1032): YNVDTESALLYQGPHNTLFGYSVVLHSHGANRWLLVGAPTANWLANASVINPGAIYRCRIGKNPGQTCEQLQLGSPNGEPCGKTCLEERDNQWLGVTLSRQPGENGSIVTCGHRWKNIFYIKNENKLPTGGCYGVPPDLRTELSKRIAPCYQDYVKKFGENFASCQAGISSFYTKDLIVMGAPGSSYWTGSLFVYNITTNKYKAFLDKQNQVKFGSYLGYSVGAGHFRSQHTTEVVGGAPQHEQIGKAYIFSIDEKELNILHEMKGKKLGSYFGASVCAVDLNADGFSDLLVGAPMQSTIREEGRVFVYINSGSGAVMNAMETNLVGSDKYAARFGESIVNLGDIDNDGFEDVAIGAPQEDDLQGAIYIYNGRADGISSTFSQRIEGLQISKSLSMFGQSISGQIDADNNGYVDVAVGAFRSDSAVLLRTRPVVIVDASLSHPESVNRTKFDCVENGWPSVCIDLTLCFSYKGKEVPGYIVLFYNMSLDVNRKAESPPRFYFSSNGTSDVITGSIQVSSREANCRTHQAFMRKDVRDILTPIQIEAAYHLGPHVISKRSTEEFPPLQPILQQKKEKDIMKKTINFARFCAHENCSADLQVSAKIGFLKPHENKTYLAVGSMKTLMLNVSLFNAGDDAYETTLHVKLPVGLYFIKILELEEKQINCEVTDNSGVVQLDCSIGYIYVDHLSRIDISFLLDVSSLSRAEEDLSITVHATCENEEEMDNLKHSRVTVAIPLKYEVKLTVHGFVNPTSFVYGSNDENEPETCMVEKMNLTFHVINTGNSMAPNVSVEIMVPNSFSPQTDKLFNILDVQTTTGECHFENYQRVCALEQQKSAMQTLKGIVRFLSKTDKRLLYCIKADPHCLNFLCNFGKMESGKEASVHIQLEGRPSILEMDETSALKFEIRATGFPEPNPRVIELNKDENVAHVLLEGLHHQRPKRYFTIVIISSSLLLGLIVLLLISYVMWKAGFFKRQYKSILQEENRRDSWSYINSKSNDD
Sequence of open conformation of integrin α4β1 (P05556 21-798): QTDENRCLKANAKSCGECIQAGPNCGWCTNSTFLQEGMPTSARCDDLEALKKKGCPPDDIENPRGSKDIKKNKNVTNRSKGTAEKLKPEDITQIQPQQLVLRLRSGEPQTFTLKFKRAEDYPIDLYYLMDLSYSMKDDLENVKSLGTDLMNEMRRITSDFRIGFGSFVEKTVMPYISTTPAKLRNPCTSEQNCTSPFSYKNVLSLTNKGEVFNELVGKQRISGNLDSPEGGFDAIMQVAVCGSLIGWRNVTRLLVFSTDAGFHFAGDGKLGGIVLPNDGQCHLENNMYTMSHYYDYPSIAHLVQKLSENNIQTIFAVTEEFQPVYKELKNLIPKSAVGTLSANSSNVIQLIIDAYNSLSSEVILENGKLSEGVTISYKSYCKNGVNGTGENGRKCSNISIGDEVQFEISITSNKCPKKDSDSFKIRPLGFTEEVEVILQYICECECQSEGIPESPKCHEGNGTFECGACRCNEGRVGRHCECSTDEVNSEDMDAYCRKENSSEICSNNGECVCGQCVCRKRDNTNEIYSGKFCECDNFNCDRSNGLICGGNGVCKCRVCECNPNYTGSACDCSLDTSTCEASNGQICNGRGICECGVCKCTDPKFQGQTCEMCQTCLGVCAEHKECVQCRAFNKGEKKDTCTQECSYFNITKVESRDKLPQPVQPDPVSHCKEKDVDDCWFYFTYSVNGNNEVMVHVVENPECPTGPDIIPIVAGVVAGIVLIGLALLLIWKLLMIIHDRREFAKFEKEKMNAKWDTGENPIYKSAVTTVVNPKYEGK

For `Cc1ccccc1NC(=O)Nc1ccc(CC(=O)N[C@@H](CCCCNC(=O)/C=C/c2cccnc2)C(=O)N[C@@H](CCCC(=O)O)C(=O)NC2(C(N)=O)CCCCC2)cc1` [LLP2A], the “affinity for open conformation of integrin α4β1” value is listed as “picomolar-affinity”.
